System: M. tuberculosis mc^26230
Format: cell-based

SMILES | MFI relative to untreated control | average fluorescence decreased by [%] | effect of 18 hr pre-treatment prior to phage addition on DST signal | six hour pre-incubation to determine drug sensitivity | fluorescence of the M. tuberculosis cells diminished by
NNC(=O)c1ccncc1 [isoniazid] | lower than the untreated control | 64 | increased the difference between treated and non-treated samples | not sufficient | –
NC[C@H]1O[C@H](O[C@H]2[C@H](O)[C@@H](O[C@H]3O[C@H](CO)[C@@H](O)[C@H](N)[C@H]3O)[C@H](N)C[C@@H]2N)[C@H](O)[C@@H](O)[C@@H]1O [kanamycin] | – | – | – | – | approximately 85%
CO[C@H]1/C=C/O[C@@]2(C)Oc3c(C)c(O)c4c(O)c(c(/C=N/N5CCN(C)CC5)c(O)c4c3C2=O)NC(=O)/C(C)=C\C=C\[C@H](C)[C@H](O)[C@@H](C)[C@@H](O)[C@@H](C)[C@H](OC(C)=O)[C@@H]1C [rifampicin] | – | – | – | – | approximately 85%
